Molecules are shown by their SMILES. Like-named read-outs stand apart in the source and are kept apart here.

Assay [1] deals with yellow nutsedge (Cyperus esculentus) (CYPES). Kind of assay: post-emergent herbicidal test, yellow nutsedge. The following applies: Cyperus, post-emergence, read-out: CYPES percent control. In kind it is in vivo. The text has this: (§1) Seeds of several different weed species were planted in sandy loam soil containing only trace organic matter. Propagules were sown in individuals rows using one species per row across the width of an aluminum flat (19.5×9.5×6 cm). The grass weeds planted were green foxtail (Setaria viridis) ("SETVI"), wild oat (Avena fatua) ("AVEFA"), barnyard grass (Enchinochloa crusgalli) ("ECHCG"). Broadleaf weeds utilized were wild mustard (Brassica kaber), also known as Sinapis arvensis, ("SINAR"), velvetleaf (Abutilon theophrasti) ("ABUTH") and morningglory (Ipomoea spp.) ("IPOSS"). Additionally, yellow nutsedge (Cyperus esculentus) ("CYPES"), nutlets were sown. Seeding depths ranged from 1.0 to 1.5 cm and plant densities ranged from 3 to 25 plants per row depending on individual plant species.
(§2) The flats were placed into a greenhouse and watered overhead by sprinkling. The greenhouse environmental systems provided the plants with natural and artificial (via metal halide lamps) lighting to attain 14 hours of light per day. Day and night temperatures were maintained at 29° and 21° C. respectively. The plants were grown for 10 to 12 days (or to the appropriate growth stage) prior to compound application. Grasses were sprayed at a 3 to 4 leaf stage and broadleaves at a 1 to 2 leaf stage. Yellow nutsedge was 5 to 7 cm tall at application.
(§3) Solutions of the test compounds were prepared by weighing out 18.8 and 74.7 mg for 1 and 4 kg/ha applications respectively, of the test compound into a 60 ml wide-mouth bottle, then dissolving the compound in 14.0 ml of deionized water containing 0.5% v/v Tween 20' (polyoxyethylene sorbitan monolaurate emulsifier) as a surfactant. Additional solvents, not exceeding 2 ml (15% of spray volume), were used if needed to dissolve the compound.
(§4) The plants were sprayed inside an enclosed linear spray table with the nozzle set at 30.5 cm (12 inches) above the foliage.
(§5) Treated plants were then returned to a greenhouse and watered daily without wetting the foliage.
(§6) The degree of weed control was evaluated 17-21 days after application and recorded as percentage of control as compared to the growth of the same species in an untreated control flat of the same. Percent control is the total injury to the plants due to all factors including: inhibited emergence, stunting, malformation, chlorosis and other types of plant injury. The control ratings range from 0 to 100 percent, where 0% represents no effect with growth equal to the untreated control and where 100% represents complete kill.

For assay [2], the system named is green foxtail (Setaria viridis) (SETVI). Kind of assay: post-emergent herbicidal test, green foxtail. Format: in vivo. The following applies: Setaria viridis, post-emergence, read-out: SETVI percent control.
Text: as §1, §2, §3, §4, §5, §6

Assay [3] concerns barnyard grass (Enchinochloa crusgalli) (ECHCG). Briefly: post-emergent herbicidal test, barnyard grass. In kind it is in vivo. The following applies: Echinochloa crus-galli, post-emergence, read-out: ECHCG percent control.
Text: as §1, §2, §3, §4, §5, §6

The test system of assay [4] is wild oat (Avena fatua) (AVEFA). Kind of assay: post-emergent herbicidal test, wild oat. The settings on record: Avena fatua, post-emergence, read-out: AVEFA percent control. In kind it is in vivo.
Text: as §1, §2, §3, §4, §5, §6

The subject of assay [5] is morningglory (Ipomoea spp.) (IPOSS). Briefly: post-emergent herbicidal test, morningglory. In kind it is in vivo. The following applies: Ipomoea, post-emergence, read-out: IPOSS percent control.
Text: as §1, §2, §3, §4, §5, §6

Assay [6] relates to wild mustard (Brassica kaber), also known as Sinapis arvensis (SINAR). Kind of assay: post-emergent herbicidal test, wild mustard. In kind it is in vivo. The following applies: Brassica, post-emergence, read-out: SINAR percent control.
Text: as §1, §2, §3, §4, §5, §6

The test system of assay [7] is farnesyl pyrophosphate synthase in daffodil chromoplasts. Kind of assay: inhibition of farnesyl pyrophosphate synthase in daffodil chromoplasts (14C-isopentenyl pyrophosphate incorporation). Format: biochemical, Narcissus pseudonarcissus. The protocol:
The IC50 value may be determined as follows. Daffodil chromoplasts are diluted to a volume of 500 microliters in a buffer containing 0.5M sucrose, 3 mM MgCl2, 1 mM ethylenediaminetetraacetic acid, 20 mM N-tris[hydroxymethyl]methyl-2-aminoethanesulfonic acid, […] N-[2-hydroxyethyl]-piperazine-N'-[2-ethanesulfonic acid], 5 mM L-cysteine, 10 mM sodium fluoride, and 0.1% bovine serum albumin at pH 7.7. The inhibitor to be tested may be dissolved in water other suitable solvent and then added to the reaction mixture. The assay is started by the addition of ^14 C-labeled isopentenyl pyrophosphate (52 Ci/mol) to give a final concentration in the assay of about 3 micromolar. The mixture is incubated at 30° C. with gentle agitation for a period of about 30 min. The reaction may be stopped by the addition of 0.5 mL of saturated NaCl and 2 mL of n-butanol saturated with water. After thorough mixing, the turbid suspensions are centrifuged briefly to separate the layers, and 1 mL of the bright yellow upper butanol layer is added to 10 mL of a suitable scintillation fluid which gives a single phase. The butanol soluble radioactivity is then measured in a scintillation counter.
In addition, the problem of variable quenching differences among different experiments can be essentially eliminated by determining the incorporation of radioactivity relative to controls. Each set of experiments requires two control tubes identical to the test samples except that they contain no inhibitor. One of these is quenched immediately (TO sample) and one is quenched at the end of the normal incubation period (T100 sample).
For each concentration of inhibitor examined the % residual activity is determined from the formula [formula]
Tightly closed daffodil flowers (Narcissus pseudonarcissus) were allowed to open at room temperature. […] Coronae were placed in twice their weight of isolation buffer consisting of 67 mM potassium phosphate, 0.74M sucrose, 5 mM MgCl2, and 0.2% polyvinyl-pyrrolidone at pH 7.6 and were disrupted by 30 seconds of homogenization at high speed in a Waring-type blender. The mixture was filtered through several layers of cheesecloth and 2 layers of 100 micron nylon mesh, and the resulting filtrate was centrifuged at 1000×g for 10 minutes. The pellet was discarded and supernatant was centrifuged at 22,000×g for 20 minutes. […] This solution was centrifuged at 22,000×g for 20 minutes to give orange pellets which were suspended in a buffer of 100 mM tris(hydroxymethyl)aminomethane at pH 7.6 containing 5mM MgCl2 and 2 mM dithiothreitol (1 ml per 10 coronae). This solution was frozen in liquid nitrogen and then stored at -80° C.
Thawed daffodil chromoplasts (100-150 microliters) were diluted to a final volume of 500 microliters in a buffer containing 0.5M sucrose, 3 mM MgCl2, 1 mM ethylenediaminetetraacetic acid, 10 mM N-[2-hydroxyethyl]piperazine-N^1 -[2-ethanesulfonic acid], 5 mM L-cysteine, 10 mM sodium fluoride, and 0.1% bovine serum albumin at pH 7.7. The inhibitor to be tested was dissolved in water or other suitable solvent and was added to the reaction mixture. The assay was started by the addition of ^14 C-labeled isopentenyl pyrophosphate (52 Ci/mol) to give a final concentration in the assay of about 3 micromolar. The mixture was incubated at 30° C. with gentle agitation for a period of about 30 minutes. The reaction was stopped by the addition of 0.5 mL of saturated NaCl and 2 mL of n-butanol saturated with water. After thorough mixing, the turbid suspensions were centrifuged briefly to separate the layers, and 1 mL of the bright yellow upper butanol layer was added to 10 mL of a suitable scintillation fluid which gave a single phase. The butanol soluble radioactivity was then measured in a scintillation counter. Each set of experiments required two control tubes identical to the test samples except that they contain no inhibitor.

Assay [8] deals with velvetleaf (Abutilon theophrasti) (ABUTH). Kind of assay: post-emergent herbicidal test, velvetleaf. In kind it is in vivo. The following applies: Abutilon theophrasti, post-emergence, read-out: ABUTH percent control.
Text: as §1, §2, §3, §4, §5, §6

The mark [9] stands for this setting: post-emergent, 1.0 kg/ha (*), 17-21 days after application.
[10] abbreviates: Table I, unit inferred, IC50 values in nM, read-out: IC50.
Where [11] appears, read: Table II, unit inferred, IC50 values in nM, read-out: IC50.
The mark [12] stands for this setting: post-emergent, 4.0 kg/ha, 17-21 days after application.

On to `O=P(O)(O)C(CN[C@@H]1C[C@H]1c1ccccc1)P(=O)(O)O` (relative stereo) [Compound 63], for which the pest or weed control at 1000 g/ha is 0% in assay [1] (setting [9]); 10% in assay [2] (setting [9]); 5% in assay [3] (setting [9]); 0% in assay [4] (setting [9]); 5% in assay [5] (setting [9]); 10% in assay [6] (setting [9]). The pest or weed control at 1000 g/ha in assay [8] (setting [9]) stood at 20%. For the same compound, the IC50 in assay [7] (setting [10]) and in assay [7] (setting [11]) was 2090 nM throughout.

With `O=P(O)(O)C(Cc1ccccn1)P(=O)(O)O` [2-(2,2-diphosphonic acid)ethylpyridine, reference compound], the IC50 (commonly the concentration needed to halve the response being measured) in assay [7] (prior-art compounds, daffodil chromoplasts, read-out: IC50 value) stood at 52 nM.

Turning to `O=P(O)(O)C(CN1CCCCC1)P(=O)(O)O` [Compound 1], the pest or weed control at 4000 g/ha in assay [1] (setting [12]) was determined as 20%; in assay [2] (setting [12]), 100%; in assay [3] (setting [12]), 100%; in assay [4] (setting [12]) it was 100%; in assay [5] (setting [12]), 100%; in assay [6] (setting [12]), 100%. The pest or weed control at 4000 g/ha in assay [8] (setting [12]) was determined as 70%. The IC50 in assay [7] (setting [10]) and in assay [7] (setting [11]) was 32 nM in each case.

On to `O=P(O)(O)C(O)(C1CCCN1)P(=O)(O)O` (stereo not shown) [Compound 2], for which the pest or weed control at 4000 g/ha in assay [1] (setting [12]) came to 5%; in assay [2] (setting [12]), 60%; in assay [3] (setting [12]), 0%; in assay [4] (setting [12]) it was 0%; in assay [5] (setting [12]), 0%; in assay [6] (setting [12]) it was 90%. Moreover, the pest or weed control at 4000 g/ha in assay [8] (setting [12]) was 0%. Besides, the IC50 in assay [7] (setting [10]) and in assay [7] (setting [11]) was 933 nM each time.

Take `CCCNCC(P(=O)(O)O)P(=O)(O)O` [Compound 3]: the pest or weed control at 1000 g/ha amounted to 30% in assay [1]; 100% in assay [2]; 100% in assay [3]; 100% in assay [4]; 95% in assay [5]; 100% in assay [6]. Further, the pest or weed control at 1000 g/ha in assay [8] is 70%. Besides, the IC50 in assay [7] (setting [10]) and in assay [7] (setting [11]) was 30 nM throughout.

With `O=P(O)(O)C(CN1CCCC1)P(=O)(O)O` [Compound 4], the pest or weed control at 1000 g/ha came out at 5% in assay [1] (setting [9]); 100% in assay [2] (setting [9]); 90% in assay [3] (setting [9]); 60% in assay [4] (setting [9]); 20% in assay [5] (setting [9]); 100% in assay [6] (setting [9]). Further, the pest or weed control at 1000 g/ha in assay [8] (setting [9]) stood at 20%. For the same compound, the IC50 in assay [7] (setting [11]) is 38 nM.

For the compound `O=P(O)(O)C(CNC1CCCCC1)P(=O)(O)O` [Compound 5], the pest or weed control at 4000 g/ha in assay [1] (setting [12]) is 10%; in assay [2] (setting [12]), 98%; in assay [3] (setting [12]) it was 98%; in assay [4] (setting [12]), 98%; in assay [5] (setting [12]), 60%; in assay [6] (setting [12]), 100%. Besides, the pest or weed control at 4000 g/ha in assay [8] (setting [12]) was found to be 60%. For the same compound, the IC50 in assay [7] (setting [10]) and in assay [7] (setting [11]) was 425 nM each time.

As for `CC(C)NCC(P(=O)(O)O)P(=O)(O)O` [Compound 6], the pest or weed control at 4000 g/ha is 25% in assay [1]; 60% in assay [2]; 60% in assay [3]; 50% in assay [4]; 70% in assay [5]; 100% in assay [6]. In addition, the pest or weed control at 4000 g/ha in assay [8] was 15%. Besides, the IC50 in assay [7] (setting [10]) and in assay [7] (setting [11]) was 89 nM in each case.

As for `O=P(O)(O)C(Cn1ccnc1)P(=O)(O)O` [Compound 64], the pest or weed control at 1000 g/ha in assay [1] (setting [9]) was 30%; in assay [2] (setting [9]), 100%; in assay [3] (setting [9]) it was 98%; in assay [4] (setting [9]) it was 100%; in assay [5] (setting [9]), 100%; in assay [6] (setting [9]), 100%. For the same compound, in assay [8] (setting [9]), the pest or weed control at 1000 g/ha was 75%.

The values are drawn from patent US5756423A, “Method of controlling plants by inhibition of farnesyl pyrophosphate synthase” (Zeneca Limited, priority 1997, dated 1998).
